≈ marks a conversion by molar mass, not a printed value. Read-outs that look alike come from different tables or passages of the source.
Assays:
[1] = system: MRSA MW2 infection of Galleria mellonella larvae; test: G. mellonella–MRSA survival assay; type: in vivo; settings: larvae infected with MRSA MW2 5 × 10^5 CFU, compound 10 mg/kg 2 h after infection, monitored 120 h; untreated 1 day
Protocol: Larvae were infected with MRSA MW2 (5 × 10^5 CFU) in the left rear proleg, and after two hours, the compounds were introduced separately at 10 mg/kg into the right rear proleg and larvae survival was monitored for 120 h.
Assays were performed as described previously. Briefly, sixteen randomly selected G. mellonella larvae (Vanderhorst, Inc., St. Mary’s, OH, USA) between 300–350 mg were used for each test group. MRSA-MW2 was grown in Tryptic Soy Broth (TSB), washed with phosphate buffered saline (PBS, pH = 7.4), and diluted to OD600 = 0.3 before inoculation into G. mellonella larvae. A 10-μL inoculum was injected into the last left proleg using a 10-μL Hamilton syringe. After 2 h, compounds were administered into the last right proleg and larvae were incubated at 37 °C. G.mellonella survival was monitored for 120 h, and death was confirmed when there was no response. Killing curves and differences in survival were analyzed by the Kaplan–Meier method using GraphPad Prism version 8 (GraphPad Software, La Jolla, CA, USA). Statistical analysis (Kruskal–Wallis test) was carried out using the same program.

[2] = system: HepG2; test: MTT cytotoxicity, HepG2; settings: HepG2, 24 hr
Protocol: (§2) Mammalian cell lines HepG2 (hepatic cells), A549 (epithelial cells), and MKN-28 (gastric cells) were used to measure the anti-proliferative properties of test compounds, as described elsewhere [28]. Cells were grown in Dulbecco’s Modified Eagle Medium (DMEM) (Gibco, Waltham, MA, USA) supplemented with 10% Fetal Bovine Serum (FBS) (Gibco, Waltham, MA, USA) and 1% penicillin/streptomycin (Gibco, Waltham, MA, USA) and maintained at 37 °C in 5% CO2. After harvesting, the cells were suspended in DMEM and 100 µL was added to the wells of 96-well plates. The test compounds were serially diluted in serum and antibiotic free DMEM, added to the monolayer of cells, and incubated at 37 °C in 5% CO2 for 24 hr. Percentage survival was calculated by comparison to DMSO-treated vehicle controls. Assays were carried out in triplicate.

[3] = system: MRSA-MW2; test: Checkerboard synergy assay (FIC index); type: cell-based, Staphylococcus aureus; settings: synergy FIC ≤ 0.5
Protocol: The combination of two antibiotics with different modes of action can reduce bacterial resistance and sometimes even restore clinical efficacy of an antibiotic that has lost effectiveness. The five compounds were tested against MRSA-MW2 in the presence of five clinical antibiotics from different classes (i.e., polymyxin B, gentamycin, erythromycin, doxycycline, and oxacillin).
Antibacterial synergy for combinations of the compounds with each other and with clinical antibiotics (doxycycline, gentamicin, polymyxin-B, oxacillin, and erythromycin) was measured using checkerboard assays. In short, Cultures of MRSA-MW2 were adjusted to OD600 = 0.06 and one compound was arrayed horizontally and other vertically in 96 well plates. The assays were carried out in triplicate, exactly as described for the antibacterial susceptibility assays. The inhibitory effects of compound combinations were evaluated using the Fractional Inhibitory Concentration (FIC) index, derived from the formula:FIC index = FICA + FICB = [A]/MICA + [B]/MICB
MIC of substance A tested in combination /MIC of substance A tested alone + MIC of substance B tested in combination/MIC of substance B tested alone. Synergy is indicated when FIC ≤ 0.5, indifference when 0.5 ≤ FIC ≤ 4, and antagonism when FIC > 4. Experiments were performed in duplicate and report the average FIC index.

[4] = system: A549; test: MTT cytotoxicity, A549; settings: A549, 24 hr
Protocol: as §2

[5] = system: clinical S. aureus isolate BF4; test: Broth microdilution MIC, clinical S. aureus isolate BF4; type: cell-based; settings: Staphylococcus aureus
Protocol: (§1) In vitro antibacterial activities were determined using the broth microdilution method. Assays were performed as described in Clinical and Laboratory Standards Institute protocols in triplicate using cation-adjusted Muller–Hinton broth (Becton Dickinson and Company, Franklin Lakes, NJ, USA) in 96-well plates with a total assay volume of 100 µL. Two-fold serial dilutions of test compounds were prepared over the concentration range of 1–64 µg/mL. The bacterial concentration was adjusted to OD600 = 0.06. […] A 10 µL aliquot from each well in the MIC assays was plated onto Muller–Hinton agar (Becton Dickinson and Company, Franklin Lakes, NJ, USA) and incubated overnight at 37 °C. The lowest concentration of compound for which no growth was observed on agar plates was reported as the minimal bactericidal concentration (MBC).

[6] = system: MKN-28; test: MTT cytotoxicity, MKN-28; settings: MKN-28, 24 hr
Protocol: as §2

[7] = system: Enterococcus faecium; test: Broth microdilution MIC, Enterococcus faecium; type: cell-based
Protocol: as §1

[8] = system: MRSA MW2; test: Broth microdilution antibacterial susceptibility (MIC/MBC), MRSA MW2; type: cell-based, Staphylococcus aureus
Protocol: as §1

[9] = system: clinical S. aureus isolate BF3; test: Broth microdilution MIC, clinical S. aureus isolate BF3; type: cell-based; settings: Staphylococcus aureus
Protocol: as §1

[10] = system: MRSA-MW2 infection of C. elegans; test: C. elegans–MRSA-MW2 high-throughput screen (Z-score, alive versus dead worms); type: in vivo, Caenorhabditis elegans; settings: screening concentration 2.86 µg/mL, hits Z > 2
Excerpt: The five compounds: (4,4′,4″-(4-propyl-[1H]-pyrazole-1,3,5-triyl)trisphenol, PPT; (1S,2S)-2-[2-[[3-(1H-benzimidazol-2-yl)propyl]methylamino]ethyl]-6-fluoro-1,2,3,4-tetrahydro-1-(1-methylethyl)-2- naphthalenyl cyclopropanecarboxylate dihydrochloride, NNC; 4,5,6,7-tetrabromobenzotriazole, TBB; 3-[2-[2-chloro-4-[3-(2,6-dichlorophenyl)-5-(1-methylethyl)-4-isoxazolyl]methoxy]phenyl] ethenyl] benzoic acid, GW4064; and N-(cyclopropylmethoxy)-3,4,5-trifluoro-2-[(4-iodo-2-methylphenyl)amino] benzamide, PD198306) were purchased from Tocris Bioscience at the following levels of purity: PPT: >99.7%, NNC: >98%, TBB: >99%, GW4064: >97%, and PD198306: 98.8%. […] Hits were identified based on Z-scores. Z-scores are calculated from the ratio of alive versus dead worms after treatment with test compounds and represents the number of standard deviations (SD) the test compound differs from the mean using the formula Z = (x − μ)/σ; where x is the raw sample score, μ is the mean of the population and σ is the standard deviation of the population. Samples with Z > 2σ are considered hits.

[11] = system: MRSA MW2; test: Sytox green membrane permeabilization; type: cell-based, Staphylococcus aureus; settings: compounds at 64 µg/mL, monitored over 1 h
Protocol: To determine whether the compounds target bacterial membranes, MRSA MW2 was treated with the compounds and uptake of the membrane-impermeable DNA-binding fluorescent dye Sytox green was monitored over 1 h (Figure 4).
Sytox Green (Life Technologies, Needham, MA, USA) membrane permeabilization assays were performed as previously described. The experiments were carried out in duplicate in 96-well plates. Cells were grown to log phase and were harvested by centrifuging at 3700× g for 5 min. The cells were washed twice with PBS and resuspended to OD600 = 0.2, following which 5 µM Sytox green was added to the cells and the bacteria-dye mixture were incubated in the dark for 30 mins.
Cell suspensions (50 µL) were added to 50 µL of test compounds (64 µg/mL in PBS) and fluorescence intensity was measured (excitation 485 nm, emission 530 nm) periodically over 60 min.

[12] = system: Acinetobacter baumannii; test: Broth microdilution MIC, Acinetobacter baumannii; type: cell-based
Protocol: as §1

[13] = system: Pseudomonas aeruginosa; test: Broth microdilution MIC, Pseudomonas aeruginosa; type: cell-based
Protocol: as §1

[14] = system: Klebsiella pneumoniae; test: Broth microdilution MIC, Klebsiella pneumoniae; type: cell-based
Protocol: as §1

[15] = system: clinical S. aureus isolate BF2; test: Broth microdilution MIC, clinical S. aureus isolate BF2; type: cell-based; settings: Staphylococcus aureus
Protocol: as §1

[16] = system: clinical S. aureus isolate BF1; test: Broth microdilution MIC, clinical S. aureus isolate BF1; type: cell-based; settings: Staphylococcus aureus
Protocol: as §1

[17] = system: Enterobactor aerogens; test: Broth microdilution MIC, Enterobactor aerogens; type: cell-based
Protocol: as §1

[18] = system: Cav3.1 T-type channels; design: method as in PMID 14718587; settings: INS-1 cells; read-out: IC50 for inhibition of Cav3.1 T-type channels; cited from earlier work
[19] = system: HVA currents; design: method as in PMID 14718587; settings: INS-1 cells; read-out: IC50 for inhibition of HVA currents; cited from earlier work
[20] = Staphylococcus aureus, MRSA MW2, 18 h, 37 °C, read-out: MIC
[21] = Staphylococcus aureus, MRSA MW2, read-out: MBC
[22] = Staphylococcus aureus, stated in text across MRSA MW2 and four clinical S. aureus isolates, read-out: MIC against MRSA MW2 and the clinical isolates
[23] = Enterobactor aerogens, read-out: MIC

CC(C)c1onc(-c2c(Cl)cccc2Cl)c1COc1ccc(C=Cc2cccc(C(=O)O)c2)c(Cl)c1 [GW4064, 3-[2-[2-Chloro-4-[[3-(2,6-dichlorophenyl)-5-(1-methylethyl)-4-isoxazolyl]methoxy]phenyl]ethenyl]benzoic acid]
median post-infection survival [1]: 2 days | Eukaryotic cell cytotoxicity [2]: 4 µg/mL | Fractional Inhibitory Concentration (FIC) Index ([3]; with Doxycycline): 2.06 | Fractional Inhibitory Concentration (FIC) Index ([3]; with Erythromycin): 1.0 | Fractional Inhibitory Concentration (FIC) Index ([3]; with Gentamycin): 0.5 | Fractional Inhibitory Concentration (FIC) Index ([3]; with Oxacillin): 1.0 | Fractional Inhibitory Concentration (FIC) Index ([3]; with Polymyxin B): 0.75 | Eukaryotic cell cytotoxicity [4]: 16 µg/mL | MIC ([5]; BF4, read-out: MIC): 8 µg/mL (≈ 14.7 µM) | Eukaryotic cell cytotoxicity [6]: 8 µg/mL | MIC ([7]; read-out: MIC): 8 µg/mL (≈ 14.7 µM) | MBC ([8]; MRSA MW2): >64 µg/mL | MIC [8, 20]: 8 µg/mL (≈ 14.7 µM) | MBC [8, 21]: > 64 µg/mL | MIC [8, 22]: 4 to 8 µg/mL (≈ 7.37 to 14.7 µM) | MIC ([9]; BF3, read-out: MIC): 8 µg/mL (≈ 14.7 µM) | Z-Score [10]: 3.28 | cellular fluorescence (Sytox green uptake) [11]: no changes in cellular fluorescence | MIC ([12]; read-out: MIC): > 64 µg/mL | MIC ([13]; read-out: MIC): > 64 µg/mL | MIC ([14]; read-out: MIC): > 64 µg/mL | MIC ([15]; BF2, read-out: MIC): 4 µg/mL (≈ 7.37 µM) | MIC ([16]; BF1, read-out: MIC): 4 µg/mL (≈ 7.37 µM) | MIC [17, 23]: > 64 µg/mL

CC(C)[C@H]1c2ccc(F)cc2CC[C@@]1(CCN(C)CCCc1nc2ccccc2[nH]1)OC(=O)C1CC1.Cl.Cl [NNC, (1S,2S)-2-[2-[[3-(1H-Benzimidazol-2-yl)propyl]methylamino]ethyl]-6-fluoro-1,2,3,4-tetrahydro-1-(1-methylethyl)-2-naphthalenyl cyclopropanecarboxylate dihydrochloride]
median post-infection survival [1]: 2 days | Eukaryotic cell cytotoxicity [2]: 2 µg/mL | Fractional Inhibitory Concentration (FIC) Index ([3]; with Doxycycline): 0.75 | Fractional Inhibitory Concentration (FIC) Index ([3]; with Erythromycin): 1.0 | Fractional Inhibitory Concentration (FIC) Index ([3]; with Gentamycin): 0.75 | Fractional Inhibitory Concentration (FIC) Index ([3]; with Oxacillin): 2.0 | Fractional Inhibitory Concentration (FIC) Index ([3]; with Polymyxin B): 0.5 | Eukaryotic cell cytotoxicity [4]: 16 µg/mL | IC50 [18]: 6.8 µM | MIC ([5]; BF4, read-out: MIC): 4 µg/mL | Eukaryotic cell cytotoxicity [6]: 8 µg/mL | MIC ([7]; read-out: MIC): 8 µg/mL | MBC ([8]; MRSA MW2): >64 µg/mL | MIC [8, 20]: 8 µg/mL | MBC [8, 21]: > 64 µg/mL | MIC ([9]; BF3, read-out: MIC): 4 µg/mL | IC50 [19]: > 100 µM | Z-Score [10]: 5.83 | cellular fluorescence (Sytox green uptake) [11]: increases in cellular fluorescence | MIC ([12]; read-out: MIC): > 64 µg/mL | MIC ([13]; read-out: MIC): > 64 µg/mL | MIC ([14]; read-out: MIC): > 64 µg/mL | MIC ([15]; BF2, read-out: MIC): 2 µg/mL | MIC ([16]; BF1, read-out: MIC): 4 µg/mL | MIC [17, 23]: > 64 µg/mL

CN[C@H](CC(C)C)C(=O)N[C@H]1C(=O)N[C@@H](CC(N)=O)C(=O)N[C@H]2C(=O)N[C@H]3C(=O)N[C@H](C(=O)N[C@H](C(=O)O)c4cc(O)cc(O)c4-c4cc3ccc4O)[C@H](O)c3ccc(c(Cl)c3)Oc3cc2cc(c3O[C@@H]2O[C@H](CO)[C@@H](O)[C@H](O)[C@H]2O[C@H]2C[C@](C)(N)[C@H](O)[C@H](C)O2)Oc2ccc(cc2Cl)[C@H]1O [Vancomycin]
MIC [5]: 2 µg/mL (≈ 1.38 µM) | MIC [7]: 4 µg/mL (≈ 2.76 µM) | MBC ([8]; Staphylococcus aureus, MRSA): 8 µg/mL (≈ 5.52 µM) | MIC ([8]; Staphylococcus aureus, MRSA, 18 h): 1 µg/mL (≈ 0.69 µM) | MIC [9]: 2 µg/mL (≈ 1.38 µM) | MIC [12]: > 64 µg/mL | MIC [13]: > 64 µg/mL | MIC [14]: > 64 µg/mL | MIC [15]: 2 µg/mL (≈ 1.38 µM) | MIC [16]: 2 µg/mL (≈ 1.38 µM) | MIC [17]: > 64 µg/mL

CCCc1c(-c2ccc(O)cc2)nn(-c2ccc(O)cc2)c1-c1ccc(O)cc1 [PPT, 4,4′,4″-(4-Propyl-[1H]-pyrazole-1,3,5-triyl)trisphenol]
median post-infection survival [1]: 2 days | Eukaryotic cell cytotoxicity [2]: 8 µg/mL | Fractional Inhibitory Concentration (FIC) Index ([3]; with Doxycycline): 0.5 | Fractional Inhibitory Concentration (FIC) Index ([3]; with Erythromycin): 0.75 | Fractional Inhibitory Concentration (FIC) Index ([3]; with Gentamycin): 1.0 | Fractional Inhibitory Concentration (FIC) Index ([3]; with Oxacillin): 1.0 | Fractional Inhibitory Concentration (FIC) Index ([3]; with Polymyxin B): 2.0 | Eukaryotic cell cytotoxicity [4]: 16 µg/mL | MIC ([5]; BF4, read-out: MIC): 8 µg/mL (≈ 20.7 µM) | Eukaryotic cell cytotoxicity [6]: 8 µg/mL | MIC ([7]; read-out: MIC): 8 µg/mL (≈ 20.7 µM) | MIC [8, 20]: 8 µg/mL (≈ 20.7 µM) | MBC [8, 21]: 32 µg/mL (≈ 82.8 µM) | MIC [8, 22]: 8 µg/mL (≈ 20.7 µM) | MIC ([9]; BF3, read-out: MIC): 8 µg/mL (≈ 20.7 µM) | Z-Score [10]: 5.54 | cellular fluorescence (Sytox green uptake) [11]: increases in cellular fluorescence | MIC ([12]; read-out: MIC): > 64 µg/mL | MIC ([13]; read-out: MIC): > 64 µg/mL | MIC ([14]; read-out: MIC): > 64 µg/mL | MIC ([15]; BF2, read-out: MIC): 8 µg/mL (≈ 20.7 µM) | MIC ([16]; BF1, read-out: MIC): 8 µg/mL (≈ 20.7 µM) | MIC [17, 23]: > 64 µg/mL

— paper PMC7459823, “Characterization of Five Novel Anti-MRSA Compounds Identified Using a Whole-Animal Caenorhabditis elegans/Galleria mellonella Sequential-Screening Approach” (Antibiotics, 2020)
